We go through seven compounds from US6359130B1, “Bridged indenopyrrolocarbazoles” (Cephalon, Inc., priority 1998, dated 2002).

For orientation: IC50 means the concentration that inhibits the measured activity by half.

T3 sequence (P35968 834-1162 limits assumed): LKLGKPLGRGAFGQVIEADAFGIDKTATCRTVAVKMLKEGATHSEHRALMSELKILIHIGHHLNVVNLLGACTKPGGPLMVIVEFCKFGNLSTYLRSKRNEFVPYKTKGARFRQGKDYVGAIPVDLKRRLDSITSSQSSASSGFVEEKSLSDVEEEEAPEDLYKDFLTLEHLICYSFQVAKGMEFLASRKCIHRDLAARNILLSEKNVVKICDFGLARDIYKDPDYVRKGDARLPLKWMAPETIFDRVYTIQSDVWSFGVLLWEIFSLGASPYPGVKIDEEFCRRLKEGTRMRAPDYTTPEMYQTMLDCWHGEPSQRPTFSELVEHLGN
T1 sequence (P04629 440-796 limits assumed): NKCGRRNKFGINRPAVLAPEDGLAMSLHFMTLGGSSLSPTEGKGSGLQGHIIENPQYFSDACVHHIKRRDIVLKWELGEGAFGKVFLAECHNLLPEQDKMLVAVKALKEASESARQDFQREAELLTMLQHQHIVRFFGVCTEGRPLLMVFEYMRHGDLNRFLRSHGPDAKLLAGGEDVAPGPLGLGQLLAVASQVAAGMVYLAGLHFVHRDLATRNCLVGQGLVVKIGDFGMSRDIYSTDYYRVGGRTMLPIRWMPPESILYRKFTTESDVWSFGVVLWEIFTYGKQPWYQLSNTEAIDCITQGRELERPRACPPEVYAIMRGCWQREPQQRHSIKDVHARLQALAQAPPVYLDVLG

The first experiment addresses T1, baculovirus-expressed human trkA cytoplasmic domain (Homo sapiens, UniProt P04629).
T1 construct: baculovirus-expressed human trka cytoplasmic domain; made in house; host or cells: baculovirus expression system
Nature of the experiment: Inhibition of trkA tyrosine kinase activity (ELISA-based assay). The class given is biochemical. The settings on record: 300 nM; values in parentheses. How it is done: Selected bridged indenopyrrolocarbazole compounds were tested for their ability to inhibit the kinase activity of baculovirus-expressed human trka cytoplasmic domain using an ELISA-based assay as previously described (Angeles et al., Anal. Biochem. 236: 49-55, 1996). Briefly, the 96-well microtiter plate was coated with substrate solution (recombinant human phospholipase C-γl/glutathione S-transferase fusion protein (Rotin et al., EMBO J., 11: 559-567, 1992). Inhibition studies were performed in 100 μl assay mixtures containing 50 mM Hepes, pH 7.4, 40 μM ATP, 10 mM MnCl2, 0.1% BSA, 2% DMSO, and various concentrations of inhibitor. The reaction was initiated by addition of trkA kinase and allowed to proceed for 15 minutes at 37° C. An antibody to phosphotyrosine (UBI) was then added, followed by a secondary enzyme-conjugated antibody, alkaline phosphatase-labelled goat anti-mouse IgG (Bio-Rad). The activity of the bound enzyme was measured via an amplified detection system (Gibco-BRL). Inhibition data were analyzed using the sigmoidal dose-response (variable slope) equation in GraphPad Prism.
In general terms: ELISA stands for enzyme-linked immunosorbent assay.
For the compound `O=C1NC(=O)c2c1c1c3c4c2c2ccccc2n4C2CCC(O2)C3(O)c2ccccc2-1` (stereo not drawn) [II-10], the “trkA % inh @ 300 nM” value is recorded as “(17) %”.

Staying with this experiment, now noted: 300 nM; values in parentheses; read-out: trkA % inh @ 300 nM.
Regarding `Nc1cccc(-c2ccc3c(c2)c2c4c(c5c6c2n3C2CCC(O2)C6c2ccccc2-5)C(=O)NC4)c1` (stereo not drawn) [II-9], the inhibition at 0.3 µM was 34%.

As for `CCC12c3ccccc3-c3c4c(c5c6ccccc6n(c5c31)C1CCC2O1)CNC4=O` (stereo not drawn) [II-2], the inhibition at 0.3 µM was determined as 20%.

Still in this experiment, the particulars now being: 40 μM ATP.
`CC12CCCC(O1)n1c3ccccc3c3c4c(c5c(c31)C2c1ccccc1-5)C(=O)NC4` (single isomer, unassigned) [II-4a]: the IC50 stood at 76 nM.

`CCOC(=O)C12CCC(O1)n1c3ccccc3c3c4c(c5c(c31)C2c1ccccc1-5)C(=O)NC4` (stereo not drawn) [II-11] yielded an IC50 of 121 nM.

`CC12COCC(O1)n1c3ccccc3c3c4c(c5c(c31)C2c1ccccc1-5)C(=O)NC4` (single isomer, unassigned) [II-7a] showed an IC50 of 11 nM.

In the case of `O=C1NCc2c1c1c3c4c2c2ccccc2n4C2CCC(CO)(O2)C3c2ccccc2-1` (stereo not drawn) [II-12], the IC50 came to 17 nM.

The target of a further experiment is T2, trkA in NIH3T3 cells transfected with trkA (Homo sapiens, UniProt P04629).
T2 construct: expressed in transfected cells; host or cells: NIH3T3 cells
T2 sequence (P04629 33-796): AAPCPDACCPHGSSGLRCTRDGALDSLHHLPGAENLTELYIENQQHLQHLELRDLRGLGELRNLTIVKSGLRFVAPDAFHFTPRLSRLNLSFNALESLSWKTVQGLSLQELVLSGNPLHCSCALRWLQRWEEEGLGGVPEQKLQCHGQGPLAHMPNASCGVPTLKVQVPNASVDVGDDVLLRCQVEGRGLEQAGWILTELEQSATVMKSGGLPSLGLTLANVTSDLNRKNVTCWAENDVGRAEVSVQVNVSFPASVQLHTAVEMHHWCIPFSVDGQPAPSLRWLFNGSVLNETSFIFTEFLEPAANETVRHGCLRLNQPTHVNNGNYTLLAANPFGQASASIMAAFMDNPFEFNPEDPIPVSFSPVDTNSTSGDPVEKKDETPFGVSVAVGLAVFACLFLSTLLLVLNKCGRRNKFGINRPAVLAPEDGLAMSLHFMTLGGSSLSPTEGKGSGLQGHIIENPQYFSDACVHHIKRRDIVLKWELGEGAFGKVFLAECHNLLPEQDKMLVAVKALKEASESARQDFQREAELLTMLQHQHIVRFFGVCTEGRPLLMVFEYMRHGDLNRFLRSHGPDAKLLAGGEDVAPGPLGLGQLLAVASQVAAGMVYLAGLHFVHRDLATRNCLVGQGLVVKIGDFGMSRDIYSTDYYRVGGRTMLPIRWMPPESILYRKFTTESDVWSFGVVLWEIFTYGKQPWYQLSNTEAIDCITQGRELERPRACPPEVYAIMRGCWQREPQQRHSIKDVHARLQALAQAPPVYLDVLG
Nature of the experiment: Inhibition of NGF-stimulated trk phosphorylation in a whole cell preparation. The class given is cell-based. The settings on record: 100 nM compound, NGF 10 ng/ml, percent decrease in trk protein band. The method, then:
NIH3T3 cells transfected with trkA were grown in 100 mm dishes. Subconfluent cells were serum-starved by replacing media with serum-free 0.05% BSA-DMEM containing compound (100 nM and 1 μM) or DMSO (added to controls) for one hour at 37° C. NGF (Harlan/Bioproducts for Science) was then added to the cells at a concentration of 10 ng/ml for 5 minutes. Cells were lysed in buffer containing detergent and protease inhibitors. Clarified cell lysates were normalized to protein using BCA method and immunoprecipitated with anti-trk antibody. Polyclonal anti-trk antibody was prepared against a peptide corresponding to the 14 amino acids at the carboxy terminus of trk (Martin-Zanca et al., Mol. Cell. Biol. 9: 24-33, 1989). The immune complexes were collected on Protein A Sepharose beads (Sigma Chem. Co., St. Lois, Mo.), separated by SDS polyacrylamide gel electrophoresis (SDS-PAGE), and transferred to a polyvinylidene difluoride (PVDF) membrane. The membrane was immunoblotted with anti-phosphotyrosine antibody (UBI), followed by incubation with horseradish peroxidase coupled goat anti-mouse IgG (Bio-Rad Laboratories, Hercules, Calif.). Phosphorylated proteins were visualized using ECL (Amersham Lite Science, Inc., Arlington Heights, Ill.). The area of the trk protein band was measured and compared to NGF-stimulated control. The inhibition scoring system used, based on percent decrease in trk protein band, was as follows: 0=no decrease; 1=1-25%; 2=26-49%; 3=50-75%; 4=76-100% Results are shown below in Table 3.
Take `CC12COCC(O1)n1c3ccccc3c3c4c(c5c(c31)C2c1ccccc1-5)C(=O)NC4` (single isomer, unassigned) [II-7a]: the “Inhibition Score at 100 nM” value is given as 3 (3=50-75%).

Still in this experiment, the particulars now being: 1000 nM compound, NGF 10 ng/ml, percent decrease in trk protein band.
With `CC12COCC(O1)n1c3ccccc3c3c4c(c5c(c31)C2c1ccccc1-5)C(=O)NC4` (single isomer, unassigned) [II-7a], the “Inhibition Score at 1000 nM” value is recorded as 4 (4=76-100%).

A further experiment has as its target T3, VEGF receptor (human flk-1, KDR, VEGFR2) kinase domain (Homo sapiens, UniProt P35968).
T3 construct: VEGF receptor (human flk-1, KDR, VEGFR2) kinase domain; made in house; host or cells: baculovirus expression system
Nature of the experiment: Inhibition of VEGF receptor kinase activity (ELISA). Format: biochemical. The settings on record: 40 μM ATP; read-out: VEGFR kinase IC50. The method, then:
Bridged indenopyrrolocarbazole compounds were examined for their inhibitory effects on the kinase activity of baculovirus-expressed VEGF receptor (human flk-1, KDR, VEGFR2) kinase domain using the procedure described for the trkA kinase ELISA assay described above. The kinase reaction mixture, consisting of 50 mM Hepes, pH 7.4, 40 μM ATP, 10 mM MnCl2, 0.1% BSA, 2% DMSO, and various concentrations of inhibitor, was transferred to PLC-γ/GST-coated plates. VEGFR kinase was added and the reaction was allowed to proceed for 15 min. at 37° C. Detection of phosphorylated product was accomplished by addition of anti-phosphotyrosine antibody (UBI). A secondary enzyme-conjugated antibody was delivered to capture the antibody-phosphorylated PLC-γ/GST complex. The activity of the bound enzyme was measured via an amplified detection system (Gibco-BRL). Inhibition data were analyzed using the sigmoidal dose-response (variable slope) equation in GraphPad Prism.
Consider `CC12CCCC(O1)n1c3ccccc3c3c4c(c5c(c31)C2c1ccccc1-5)C(=O)NC4` (single isomer, unassigned) [II-4a], for which the IC50 turned out to be 17 nM.

As to `CCOC(=O)C12CCC(O1)n1c3ccccc3c3c4c(c5c(c31)C2c1ccccc1-5)C(=O)NC4` (stereo not drawn) [II-11], the IC50 was 205 nM.

On to `O=C1NC(=O)c2c1c1c3c4c2c2ccccc2n4C2CCC(O2)C3(O)c2ccccc2-1` (stereo not drawn) [II-10], for which the IC50 worked out at 601 nM.

Take `CC12COCC(O1)n1c3ccccc3c3c4c(c5c(c31)C2c1ccccc1-5)C(=O)NC4` (single isomer, unassigned) [II-7a]: the IC50 stood at 87 nM.

`O=C1NCc2c1c1c3c4c2c2ccccc2n4C2CCC(CO)(O2)C3c2ccccc2-1` (stereo not drawn) [II-12]: the IC50 was 20 nM.

Regarding `Nc1cccc(-c2ccc3c(c2)c2c4c(c5c6c2n3C2CCC(O2)C6c2ccccc2-5)C(=O)NC4)c1` (stereo not drawn) [II-9], the IC50 amounted to 318 nM.

In the case of `CCC12c3ccccc3-c3c4c(c5c6ccccc6n(c5c31)C1CCC2O1)CNC4=O` (stereo not drawn) [II-2], the IC50 is over 10000 nM.

The next experiment relates to protein kinase C (mixed isozymes of a, b, g). Nature of the experiment: Inhibition of protein kinase C activity (Millipore Multiscreen TCA in-plate assay). The class given is biochemical. The settings on record: 1 uM; values in parentheses. How it is done:
Protein kinase C activity was assessed using the Millipore Multiscreen TCA “in-plate” assay as described in Pitt, A. M. and Lee, C. (J. Biomol. Screening, 1: 47-51, 1996). Assays were performed in 96-well Multiscreen-DP plates (Millipore). Each […] assay mixture contained 20 mM Hepes, pH 7.4, 10 mM MgCl2, 2.5 mM EGTA, 2.5 mM CaCl2, 80 mg/ml phosphatidyl serine, 3.2 mg/ml diolein, 200 mg/ml histone H-1(Fluka), 5 mM [γ-^32P]ATP, 1.5 ng protein kinase C (UBI; mixed isozymes of a, b, g), 0.1% BSA, 2% DMSO, and test bridged fused pyrrolocarbazole compound. The reaction was allowed to proceed for 10 min at 37° C., then quenched by adding ice cold 50% trichloroacetic acid. The plates were allowed to equilibrate for 30 min at 4° C., then washed with ice cold 25% TCA. Scintillation cocktail was added to the plates, and the radioactivity was determined using Wallac MicroBeta 1450 PLUS scintillation counter. The IC50 values were calculated by fitting the data to the sigmoidal dose-response (variable slope) equation in GraphPad Prism.
As for `CC12CCCC(O1)n1c3ccccc3c3c4c(c5c(c31)C2c1ccccc1-5)C(=O)NC4` (single isomer, unassigned) [II-4a], the “PKC % Inh. @ 1 uM” value is on record as “(18) %”.

For `CCOC(=O)C12CCC(O1)n1c3ccccc3c3c4c(c5c(c31)C2c1ccccc1-5)C(=O)NC4` (stereo not drawn) [II-11], the “PKC % Inh. @ 1 uM” value is “(19) %”.

As for `O=C1NC(=O)c2c1c1c3c4c2c2ccccc2n4C2CCC(O2)C3(O)c2ccccc2-1` (stereo not drawn) [II-10], the “PKC % Inh. @ 1 uM” value is recorded as “(5) %”.

Take `Nc1cccc(-c2ccc3c(c2)c2c4c(c5c6c2n3C2CCC(O2)C6c2ccccc2-5)C(=O)NC4)c1` (stereo not drawn) [II-9]: the “PKC % Inh. @ 1 uM” value is “(5) %”.

As for `CCC12c3ccccc3-c3c4c(c5c6ccccc6n(c5c31)C1CCC2O1)CNC4=O` (stereo not drawn) [II-2], the “PKC % Inh. @ 1 uM” value is listed as “(−9) %”.

Still in this experiment, the particulars now being: read-out: PKC IC50.
In the case of `CC12COCC(O1)n1c3ccccc3c3c4c(c5c(c31)C2c1ccccc1-5)C(=O)NC4` (single isomer, unassigned) [II-7a], the half-inhibitory concentration (IC50) was found to be 696 nM.

For `O=C1NCc2c1c1c3c4c2c2ccccc2n4C2CCC(CO)(O2)C3c2ccccc2-1` (stereo not drawn) [II-12], the IC50 was 518 nM.

The target in the next experiment is T4, PDGFβ receptor kinase domain (Homo sapiens, UniProt P09619).
T4 construct: baculovirus-expresses PDGFβ receptor kinase domain; made in house; host or cells: baculovirus expression system
T4 sequence (P09619 600-962 limits assumed): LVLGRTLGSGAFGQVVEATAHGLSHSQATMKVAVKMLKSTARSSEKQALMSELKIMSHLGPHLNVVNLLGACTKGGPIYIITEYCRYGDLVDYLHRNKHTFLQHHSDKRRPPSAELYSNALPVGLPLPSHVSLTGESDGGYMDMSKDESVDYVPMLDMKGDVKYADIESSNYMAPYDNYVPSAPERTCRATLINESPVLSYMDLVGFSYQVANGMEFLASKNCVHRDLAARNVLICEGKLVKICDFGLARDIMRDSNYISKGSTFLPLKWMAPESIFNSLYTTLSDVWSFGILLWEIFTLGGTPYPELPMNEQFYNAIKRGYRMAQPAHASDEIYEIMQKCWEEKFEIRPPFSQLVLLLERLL
Nature of the experiment: Inhibition of PDGF receptor kinase activity (ELISA). The settings on record: 1 μM; values in parentheses. Format: biochemical. How it is done:
Bridged indenopyrrolocarbazole compounds were examined for their inhibitory effects on the kinase activity of baculovirus-expresses PDGFβ receptor kinase domain using the trkA kinase ELISA described above. Assays were performed in substrate (PLC-γ/GST)-coated 96-well microtiter plates. Each 100-μl reaction mixture contained 50 mM HEPES, pH 7.4, 20 μM ATP, 10 mM MnCl2, 0.1% BSA, 2% DMSO, and various concentrations of inhibitor. The reaction was initiated by addition of prephosphorylated recombinant human enzyme (10 ng/ml PDGFRβ) and allowed to proceed for 15 minutes at 37° C. The prephosphorylated enzyme was prepared prior to use by incubation of the kinase in buffer containing 20 μM ATP and 10 mM MnCl2 for 1 hour at 4° C. Detection of phosphorylated product was done by adding horseradish peroxidase (HRP)-conjugated anti-phosphotyrosine antibody (UBI). The HRP substrate solution containing 3, 3′-5, 5′-tetramethylbenzidine and hydrogen peroxide was later added and the plates were incubated for 10 minutes at room temperature. The reaction was quenched with acid and the resulting absorbance was read at 450 nm using a Microplate Bio-kinetics Reader (Bio-Tek Instrument EL 312e). Inhibition data were analyzed using the sigmoidal dose-response (variable slope) equation in GraphPad Prism.
Take `CC12CCCC(O1)n1c3ccccc3c3c4c(c5c(c31)C2c1ccccc1-5)C(=O)NC4` (single isomer, unassigned) [II-4a]: the “PDGFR % Inh. @ 1 μM” value was “(0) %”.

For `CCOC(=O)C12CCC(O1)n1c3ccccc3c3c4c(c5c(c31)C2c1ccccc1-5)C(=O)NC4` (stereo not drawn) [II-11], the “PDGFR % Inh. @ 1 μM” value is reported as “(15) %”.

As to `O=C1NC(=O)c2c1c1c3c4c2c2ccccc2n4C2CCC(O2)C3(O)c2ccccc2-1` (stereo not drawn) [II-10], the “PDGFR % Inh. @ 1 μM” value is reported as “(23) %”.

Turning to `CC12COCC(O1)n1c3ccccc3c3c4c(c5c(c31)C2c1ccccc1-5)C(=O)NC4` (single isomer, unassigned) [II-7a], the “PDGFR % Inh. @ 1 μM” value is “(36) %”.

Still in this experiment, the particulars now being: 1 μM; values in parentheses; read-out: PDGFR % Inh. @ 1 μM.
As to `Nc1cccc(-c2ccc3c(c2)c2c4c(c5c6c2n3C2CCC(O2)C6c2ccccc2-5)C(=O)NC4)c1` (stereo not drawn) [II-9], the inhibition at 1 µM turned out to be 24%.

As for `CCC12c3ccccc3-c3c4c(c5c6ccccc6n(c5c31)C1CCC2O1)CNC4=O` (stereo not drawn) [II-2], the inhibition at 1 µM was 7%.

Staying with this experiment, now noted: 20 μM ATP; read-out: PDGFR IC50.
`O=C1NCc2c1c1c3c4c2c2ccccc2n4C2CCC(CO)(O2)C3c2ccccc2-1` (stereo not drawn) [II-12]: the IC50 was 125 nM.
